From the NIST ThermoML archive (doi:10.1016/j.jct.2015.11.023)

Columns and labels:
[1] = for surface tension liquid-gas: Maximal bubble pressure; for mass density: 101.33 kPa, Liquid, Vibrating tube method
[2] = refractive index (Na D-line) (dimensionless); conditions: 101.33 kPa, Liquid, Standard Abbe refractometry

CCC[n+]1ccccc1.N#C[N-]C#N [1-propylpyridinium dicyanamide]
Conditions | mass density, [1] [kg/m3] | refractive index, [2] | surface tension liquid-gas, [1] [mN/m]
303.15 K | 1086.92 | 1.539 | 57.7
308.15 K | 1083.79 | 1.5374 | 57.4
313.15 K | 1080.69 | 1.5356 | 57
318.15 K | 1077.6 | 1.5342 | 56.7
323.15 K | 1074.52 | 1.5329 | 56.4
328.15 K | 1071.46 | 1.5312 | 56.1
333.15 K | 1068.42 | 1.5293 | 55.7
338.15 K | 1065.4 | 1.5276 | 55.4

CCCC[n+]1ccccc1.N#C[N-]C#N [1-butylpyridinium dicyanamide]
Conditions | mass density, [1] [kg/m3] | refractive index, [2] | surface tension liquid-gas, [1] [mN/m]
303.15 K | 1065.76 | 1.5325 | 55.5
308.15 K | 1062.7 | 1.5309 | 55.2
313.15 K | 1059.66 | 1.5285 | 54.9
318.15 K | 1056.64 | 1.527 | 54.5
323.15 K | 1053.63 | 1.5253 | 54.2
328.15 K | 1050.63 | 1.5237 | 53.9
333.15 K | 1047.66 | 1.5217 | 53.6
338.15 K | 1044.69 | 1.5202 | 53.4

CCCCC[n+]1ccccc1.N#C[N-]C#N [1-pentylpyridinium dicyanamide]
Conditions | mass density, [1] [kg/m3] | refractive index, [2] | surface tension liquid-gas, [1] [mN/m]
303.15 K | 1050.05 | 1.5287 | 53
308.15 K | 1047.03 | 1.5272 | 52.7
313.15 K | 1044.03 | 1.5258 | 52.4
318.15 K | 1041.04 | 1.5243 | 52.1
323.15 K | 1038.07 | 1.523 | 51.7
328.15 K | 1035.11 | 1.5212 | 51.4
333.15 K | 1032.17 | 1.5194 | 51.2
338.15 K | 1029.24 | 1.5179 | 51
